{
  "source": "patent US20250205268A1",
  "about": "“TREATMENT OF VIRUSES WITH ANTIVIRAL NUCLEOSIDES” (priority 2021, published 2025)",
  "key": {"[1]": {"tested_on": "SARS-CoV-2", "details": "in vivo"}, "[2]": {"tested_on": "SARS-CoV-2"}},
  "data": [
    {"smiles": "CC(C)C(=O)OC[C@H]1O[C@@H](n2ccc(NO)nc2=O)[C@H](O)[C@@H]1O", "note": "[Compound A, {(2R,3S,4R,5R)-3,4-dihydroxy-5-[4-(hydroxyimino)-2-oxo-3,4-dihydropyrimidin-1 (2H)-yl]oxolan-2-yl}methyl 2-methylpropanoate]", "values": [
      {"measurement": "participants hospitalized or died through Day 29", "setting": "[1]", "result": "~3", "unit": "%"},
      {"measurement": "percentage of mutations in viral RNA post-treatment at Day 5", "setting": "[1]", "result": "highest percentage of mutations"},
      {"measurement": "mean SARS-CoV-2 viral RNA mutation rates per 10,000 nucleotides", "setting": "[2]; 800 mg, end of therapy", "result": "5.9 per 10,000 nucleotides"},
      {"measurement": "Drug-related adverse events", "setting": "[2]; human, in vivo", "result": 11.0, "unit": "%"}
    ]}
  ]
}
